According to patent publication US6770597B2, “Benzohydrazide derivatives as herbicides and desiccant compositions containing them” (Ishihara Sangyo Kaisha, Ltd., priority 2002, dated 2004):

Experiments:
Assay type in all cases: in vivo
[1] = system: upland rice (Oryza sp., var.Cocodrie, RICE); test: Greenhouse herbicide screen, post-emerge application, crop damage rating; details: POST emergent, 14 days after application, scale 0-100
Excerpt: (§1) A standard greenhouse herbicide activity screening system was used to evaluate the herbicidal efficacy and crop safety of these test compounds. Seven broadleaf weed species including redroot pigweed (Amaranthus retrofiexus, AMARE), velvetleaf (Abutilon theophrasti, ABUTH), sicklepod (Cassia obtusifolia, CASOB), ivyleaf morningglory (Ipomoea hederacea, IPOHE), lambsquarters (Chenopodium album, CHEAL), common ragweed (Ambrosia artemisiifolia L., AMBEL), and cocklebur (Xanthium strumarium, XANST) were used as test species. Four grass weed species including green foxtail (Setaria viridis, SETVI), barnyardgrass (Echinochloa crus-galli, ECHCG), johnsongrass (Sorghum halepense, SORHA), and large crabgrass (Digitaria sanguinalis, DIGSA) were also used. In addition, four crop species, field corn (Zea mays L., var. Dekalb 535, CORN), soybean (Glycine max L., var. Pella 86, SOY), upland rice (Oryza sp., var.Cocodrie, RICE) and wheat (Triticum aestivum L.) were included.
(§2) All plants were grown in 10 cm square plastic pots which were filled with a sandy loam soil mix. For pre-emerge tests, seeds were planted one day prior to application of the test compounds. For post-emerge tests, seeds were planted 8-21 days prior to the test to allow emergence and good foliage development prior to application of the test substances. At the time of the post-emerge application, plants of all species were usually at the 2-3 leaf stage of development.
(§3) All test compounds were dissolved in acetone and applied to the test units in a volume of 187 l/ha. Test materials were applied at rates ranging from 15 g ai/ha to 1000 g ai/ha using a track sprayer equipped with a TJ8001E even flow flat fan spray nozzle. Plants were arranged on a shelf so that the top of the canopy (post-emerge) or top of the soil surface (pre-emerge) was 40-45 cm below the nozzle. Pressurized air was used to force the test solution through the nozzle as it was mechanically advanced (via electrically driven chain drive) over the top of all test plants/pots. This application simulates a typical commercial field herbicide application.
(§4) Pre-emergence tests were top watered immediately after treatment to incorporate the test materials, then routinely top-watered for normal growth. Post-emerge test units were always bottom-watered.
(§5) At 14 days after application of the test materials, phytotoxicity ratings were recorded. A rating scale of 0-100 was used as previously described in Research Methods in Weed Science, 2nd edition, B. Truelove, Ed., Southern Weed Science Society, Auburn University, Auburn, Ala., 1977. Briefly, “0” corresponds to no damage and “100” corresponds to complete death of all plants in the test unit. This scale was used both to determine efficacy against weed species and damage to crop species. Herbicide activity data for various compounds of this invention, which are shown by compound No. in Tables 1-12, are shown in Tables 13 and 14.

[2] = system: field corn (Zea mays L., var. Dekalb 535, CORN); test: as above; details: POST emergent, 14 days after application, scale 0-100
Excerpt: as §1, §2, §3, §4, §5

[3] = system: johnsongrass (Sorghum halepense, SORHA); test: Greenhouse herbicide screen, pre-emerge application, phytotoxicity rating; details: PRE emergent, 14 days after application, rating scale 0-100
Method in brief: (§6)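 Greenhouse pot test with soil-applied or foliar track-sprayer treatment at 15–1000 g ai/ha from acetone solution. Injury, from none (0) to total kill (100), was recorded 14 days after application.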

[4] = system: velvetleaf (Abutilon theophrasti, ABUTH); test: as above; details: PRE emergent, 14 days after application, rating scale 0-100
Method in brief: as §6

[5] = system: common ragweed (Ambrosia artemisiifolia L., AMBEL); test: as above; details: PRE emergent, 14 days after application, rating scale 0-100
Method in brief: as §6

[6] = system: barnyardgrass (Echinochloa crus-galli, ECHCG); test: as above; details: PRE emergent, 14 days after application, rating scale 0-100
Method in brief: as §6

[7] = system: sicklepod (Cassia obtusifolia, CASOB); test: as above; details: PRE emergent, 14 days after application, rating scale 0-100
Method in brief: as §6

[8] = system: lambsquarters (Chenopodium album, CHEAL); test: as above; details: PRE emergent, 14 days after application, rating scale 0-100
Method in brief: as §6

[9] = system: ivyleaf morningglory (Ipomoea hederacea, IPOHE); test: as above; details: PRE emergent, 14 days after application, rating scale 0-100
Method in brief: as §6

[10] = system: green foxtail (Setaria viridis, SETVI); test: as above; details: PRE emergent, 14 days after application, rating scale 0-100
Method in brief: as §6

[11] = system: cocklebur (Xanthium strumarium, XANST); test: as above; details: PRE emergent, 14 days after application, rating scale 0-100
Method in brief: as §6

[12] = system: redroot pigweed (Amaranthus retrofiexus, AMARE); test: as above; details: PRE emergent, 14 days after application, rating scale 0-100
Method in brief: as §6

[13] = system: large crabgrass (Digitaria sanguinalis, DIGSA); test: as above; details: PRE emergent, 14 days after application, rating scale 0-100
Method in brief: as §6

[14] = system: johnsongrass (Sorghum halepense, SORHA); test: Greenhouse herbicide screen, post-emerge application, phytotoxicity rating; details: POST emergent, 14 days after application, scale 0-100
Method in brief: as §6

[15] = system: velvetleaf (Abutilon theophrasti, ABUTH); test: as above; details: POST emergent, 14 days after application, scale 0-100
Method in brief: as §6

[16] = system: common ragweed (Ambrosia artemisiifolia L., AMBEL); test: as above; details: POST emergent, 14 days after application, scale 0-100
Method in brief: as §6

[17] = system: barnyardgrass (Echinochloa crus-galli, ECHCG); test: as above; details: POST emergent, 14 days after application, scale 0-100
Method in brief: as §6

[18] = system: sicklepod (Cassia obtusifolia, CASOB); test: as above; details: POST emergent, 14 days after application, scale 0-100
Method in brief: as §6

[19] = system: lambsquarters (Chenopodium album, CHEAL); test: as above; details: POST emergent, 14 days after application, scale 0-100
Method in brief: as §6

[20] = system: ivyleaf morningglory (Ipomoea hederacea, IPOHE); test: as above; details: POST emergent, 14 days after application, scale 0-100
Method in brief: as §6

[21] = system: green foxtail (Setaria viridis, SETVI); test: as above; details: POST emergent, 14 days after application, scale 0-100
Method in brief: as §6

[22] = system: cocklebur (Xanthium strumarium, XANST); test: as above; details: POST emergent, 14 days after application, scale 0-100
Method in brief: as §6

[23] = system: redroot pigweed (Amaranthus retrofiexus, AMARE); test: as above; details: POST emergent, 14 days after application
Method in brief: as §6

[24] = system: large crabgrass (Digitaria sanguinalis, DIGSA); test: as above; details: POST emergent, 14 days after application, scale 0-100
Method in brief: as §6

[25] = system: upland rice (Oryza sp., var.Cocodrie, RICE); test: Greenhouse herbicide screen, pre-emerge application, crop damage rating; details: PRE emergent, 14 days after application, rating scale 0-100
Excerpt: as §1, §2, §3, §4, §5

[26] = system: field corn (Zea mays L., var. Dekalb 535, CORN); test: as above; details: PRE emergent, 14 days after application, rating scale 0-100
Excerpt: as §1, §2, §3, §4, §5

SMILES: CC1CCCC(C)N1NC(=O)c1cc(-n2c(=O)cc(C(F)(F)F)n(C)c2=S)c(F)cc1Cl (stereo not shown) [Compound 1-15]
- crop damage rating RICE ([1]; 63 g ai/ha): 0
- crop damage rating RICE ([1]; 250 g ai/ha): 30
- crop damage rating CORN ([2]; 63 g ai/ha): 40
- crop damage rating CORN ([2]; 250 g ai/ha): 60
- phytotoxicity rating SORHA ([3]; 63 g ai/ha): 100
- phytotoxicity rating SORHA ([3]; 250 g ai/ha): 100
- phytotoxicity rating ABUTH ([4]; 63 g ai/ha): 100
- phytotoxicity rating ABUTH ([4]; 250 g ai/ha): 100
- phytotoxicity rating AMBEL ([5]; 63 g ai/ha): 100
- phytotoxicity rating AMBEL ([5]; 250 g ai/ha): 100
- phytotoxicity rating ECHCG ([6]; 63 g ai/ha): 75
- phytotoxicity rating ECHCG ([6]; 250 g ai/ha): 100
- phytotoxicity rating CASOB ([7]; 63 g ai/ha): 45
- phytotoxicity rating CASOB ([7]; 250 g ai/ha): 90
- phytotoxicity rating CHEAL ([8]; 63 g ai/ha): 100
- phytotoxicity rating CHEAL ([8]; 250 g ai/ha): 100
- phytotoxicity rating IPOHE ([9]; 63 g ai/ha): 100
- phytotoxicity rating IPOHE ([9]; 250 g ai/ha): 100
- phytotoxicity rating SETVI ([10]; 63 g ai/ha): 100
- phytotoxicity rating SETVI ([10]; 250 g ai/ha): 100
- phytotoxicity rating XANST ([11]; 63 g ai/ha): 75
- phytotoxicity rating XANST ([11]; 250 g ai/ha): 100
- phytotoxicity rating AMARE ([12]; 63 g ai/ha): 100
- phytotoxicity rating AMARE ([12]; 250 g ai/ha): 100
- phytotoxicity rating DIGSA ([13]; 63 g ai/ha): 100
- phytotoxicity rating DIGSA ([13]; 250 g ai/ha): 100
- phytotoxicity rating SORHA ([14]; 63 g ai/ha): 0
- phytotoxicity rating SORHA ([14]; 250 g ai/ha): 30
- phytotoxicity rating ABUTH ([15]; 63 g ai/ha): 100
- phytotoxicity rating ABUTH ([15]; 250 g ai/ha): 100
- phytotoxicity rating AMBEL ([16]; 63 g ai/ha): 80
- phytotoxicity rating AMBEL ([16]; 250 g ai/ha): 95
- phytotoxicity rating ECHCO ([17]; 63 g ai/ha): 50
- phytotoxicity rating ECHCO ([17]; 250 g ai/ha): 80
- phytotoxicity rating CASOB ([18]; 63 g ai/ha): 70
- phytotoxicity rating CASOB ([18]; 250 g ai/ha): 75
- phytotoxicity rating CHEAL ([19]; 63 g ai/ha): 98
- phytotoxicity rating CHEAL ([19]; 250 g ai/ha): 100
- phytotoxicity rating IPOHE ([20]; 63 g ai/ha): 75
- phytotoxicity rating IPOHE ([20]; 250 g ai/ha): 100
- phytotoxicity rating SETVI ([21]; 63 g ai/ha): 20
- phytotoxicity rating SETVI ([21]; 250 g ai/ha): 55
- phytotoxicity rating XANST ([22]; 63 g ai/ha): 100
- phytotoxicity rating XANST ([22]; 250 g ai/ha): 100
- phytotoxicity rating AMARE ([23]; 63 g ai/ha, scale 0-100 (0 no damage, 100 complete death)): 90
- phytotoxicity rating AMARE ([23]; 250 g ai/ha, scale 0-100): 100
- phytotoxicity rating DIGSA ([24]; 63 g ai/ha): 10
- phytotoxicity rating DIGSA ([24]; 250 g ai/ha): 10
- crop damage rating RICE ([25]; 63 g ai/ha): 55
- crop damage rating RICE ([25]; 250 g ai/ha): 70
- crop damage rating CORN ([26]; 63 g ai/ha): 25
- crop damage rating CORN ([26]; 250 g ai/ha): 100
